Patent US20200390774A1, “TRPA1 ANTAGONISTS FOR USE IN THE TREATMENT OF ATOPIC DERMATITIS” (GALDERMA RESEARCH & DEVELOPMENT, priority 2016, published 2020)

How the values were obtained:
[1] = tested on: TRPA1 agonist-induced ear edema; assay: Topical PD model: AITC (TRPA1 agonist)-induced ear edema; type: in vivo, mouse; conditions: topical 1% or 3% in acetone, 1 h before 6% AITC, measured during 6 hours
Description: Test antagonists B to D were formulated at 1% or 3% in an acetone vehicle, applied to the mouse ear skin (10 μl/ear both faces) and left for 1 hour. Then, 10 μl of a 6% solution of allyl isothiocyanate (AITC) in acetone (vehicle 001) was applied to the same location, and ear thickness was measured at TO, 30 min, 1 h, 2 h, 4 h and 6 h. A topical pharmacodynamics (PD) model was designed in mouse, in which test antagonists B to D were formulated at 1% or 3% in an acetone vehicle, applied to the ear skin and left for 1 hour. After this time, a 6% solution of allyl isothiocyanate (AITC), a TRPA1 agonist, in acetone (vehicle 001) was then applied to the same location and ear edema (via the ear thickness) was measured during 6 hours.

mouse AD-patch model = assay: AD-patch model (DERP epicutaneous sensitization); type: in vivo; conditions: topical 1% in acetone, days 44, 47 and 50; for epidermis thickness, change / inflammatory scores, change: day 51 histology; for TEWL-increase, change: measured day 51
Description: Female Balb/c mice were treated with Dermatophagoïdes pteronyssinus (DERP) allergen in 3 cycles of epicutaneous sensitization (patch) on abdominal skin with 2 patches applied twice weekly followed by 2 weeks of rest, during 7 weeks. Antagonists B or D were formulated at 1% in an acetone vehicle, applied to the sensitized-skin 2 hours before DERP-patches installation. Topical treatments with antagonists or a corticosteroid (used as a control) were only performed 3 times in the 3rd and last week of sensitization (at days 44, 47 and 50).
TEWL is measured the last day (Day 51) according to the protocol of FIG. 2.
On day 51, animals are sacrificed and skin is removed and fixed in formalin followed by embedment in paraffin, sectioning and staining with hematoxylin and eosin. Epidermis thickness is measured by averaging the values of measurements of five independent fields of view.
On day 51, animals are sacrificed and skin is removed and fixed in formalin followed by embedment in paraffin, sectioning and staining with hematoxylin and eosin. Inflammation score is quantified by averaging the values of 10 random fields of view per sample, scored for inflammation with a gradient (semi-quantitative scoring from 0 to 5).
At day 51, gene expression of IL4 cytokine is quantified after RNA extraction from skin, RNA retro transcription and PCR using the TaqMan® Universal MasterMix of Applied Biosystem. cDNA of mice of group Vehicle 001 are used as comparator.
At day 51, gene expression of TSLP cytokine is quantified after RNA extraction from skin, RNA retro transcription and PCR using the TaqMan® Universal MasterMix of Applied Biosystem. cDNA of mice of group Vehicle 001 are used as comparator.
AD inflammatory response was induced by epicutaneous sensitization with patches soaked with 100 μg of allergen in sterile saline (Dermatophagoïdes pteronyssinus or DERP) or with vehicle applied on abdominal skin 24 h after shaving and left on for three 1-wk periods (with patch renewal at midweek), with a 2-wk interval between applications. The presence of the patches and of a transparent occlusive dressing above, prevented licking, biting and scratching from mouse, therefore the inflammatory response in this model is not due to the scratch-itch cycle.
Antagonists B or D were formulated at 1% in an acetone vehicle, applied to the sensitized-skin 2 hours before DERP-patches installation. Topical treatments with antagonists or a corticosteroid (used as a control) were only performed 3 times in the 3rd and last week of sensitization (at days 44, 47 and 50).
At the time of the last patch removal (day 51), skin samples and blood were collected.
Skin was collected for histological, immunohistological analyses and real-time PCR after RNA extraction. Ig (IgE, and specific IgG) concentrations in serum were measured by ELISA

hTRPV3 = molecular target: T1, hTRPV3 (Homo sapiens, UniProt Q8NET8); conditions: unit inferred; cited from earlier work
T1 sequence (Q8NET8 1-790): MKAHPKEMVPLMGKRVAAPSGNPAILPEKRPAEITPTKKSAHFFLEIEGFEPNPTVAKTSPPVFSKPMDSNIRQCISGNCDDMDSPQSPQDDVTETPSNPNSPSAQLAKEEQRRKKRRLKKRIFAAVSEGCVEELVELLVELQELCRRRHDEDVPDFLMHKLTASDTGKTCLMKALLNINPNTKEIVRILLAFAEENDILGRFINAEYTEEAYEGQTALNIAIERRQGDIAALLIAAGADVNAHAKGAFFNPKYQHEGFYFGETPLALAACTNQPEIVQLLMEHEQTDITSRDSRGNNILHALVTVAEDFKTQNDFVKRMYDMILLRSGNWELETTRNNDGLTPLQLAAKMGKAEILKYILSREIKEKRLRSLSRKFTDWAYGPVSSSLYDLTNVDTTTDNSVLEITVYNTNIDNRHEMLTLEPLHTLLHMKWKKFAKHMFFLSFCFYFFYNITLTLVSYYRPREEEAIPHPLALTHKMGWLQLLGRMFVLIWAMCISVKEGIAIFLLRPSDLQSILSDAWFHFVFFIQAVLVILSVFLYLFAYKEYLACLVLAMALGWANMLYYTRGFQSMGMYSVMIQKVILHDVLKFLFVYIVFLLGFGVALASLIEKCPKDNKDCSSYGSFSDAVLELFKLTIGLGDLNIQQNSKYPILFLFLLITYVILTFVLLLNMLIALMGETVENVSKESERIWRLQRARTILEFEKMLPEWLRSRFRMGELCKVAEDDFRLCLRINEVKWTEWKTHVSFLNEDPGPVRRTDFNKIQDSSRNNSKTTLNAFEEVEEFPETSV

[2] = tested on: imiquimod-induced psoriasiform skin inflammation; assay: Imiquimod (Aldara) psoriasiform model; type: in vivo, mouse; conditions: topical 1% in PG/EtOH twice daily, day 8
Description: The treatment protocol consists of a daily topical application of Aldara (3.18 mg of imiquimod) for 7 days on the shaved back skin of Balb/c mice. Compound C was dissolved in PG/EtOH at 1% and was applied twice daily 2 h before and 6 h after Aldara treatment. Corticosteroid was dissolved in acetone (Vehicle 001) at 0.01% and applied only 2 h before Aldara treatment. Epidermis thickness is then measured at day 8 according to the protocol of FIG. 3. […] Indeed, it induces inflamed scaly skin lesions resembling psoriasis plaques. […] IMQ induced epidermal expression of IL-23, IL-17A, and IL-17F, as well as an increase in splenic Th17 cells (J Immunol. 2009 May 1; 182(9):5836-45). Mice received a daily topical dose of 63.5 mg (14 μl) of commercially available IMQ cream (5%) (Aldara; 3M Pharmaceuticals) on the shaved back skin for 7 consecutive days.

pain models = conditions: cited from earlier work
[3] = cited from earlier work
hTRPA1 = hTRPA1 (Homo sapiens, UniProt O75762); conditions: value in μM; cited from earlier work
hTRPA1, sequence (O75762 whole entry): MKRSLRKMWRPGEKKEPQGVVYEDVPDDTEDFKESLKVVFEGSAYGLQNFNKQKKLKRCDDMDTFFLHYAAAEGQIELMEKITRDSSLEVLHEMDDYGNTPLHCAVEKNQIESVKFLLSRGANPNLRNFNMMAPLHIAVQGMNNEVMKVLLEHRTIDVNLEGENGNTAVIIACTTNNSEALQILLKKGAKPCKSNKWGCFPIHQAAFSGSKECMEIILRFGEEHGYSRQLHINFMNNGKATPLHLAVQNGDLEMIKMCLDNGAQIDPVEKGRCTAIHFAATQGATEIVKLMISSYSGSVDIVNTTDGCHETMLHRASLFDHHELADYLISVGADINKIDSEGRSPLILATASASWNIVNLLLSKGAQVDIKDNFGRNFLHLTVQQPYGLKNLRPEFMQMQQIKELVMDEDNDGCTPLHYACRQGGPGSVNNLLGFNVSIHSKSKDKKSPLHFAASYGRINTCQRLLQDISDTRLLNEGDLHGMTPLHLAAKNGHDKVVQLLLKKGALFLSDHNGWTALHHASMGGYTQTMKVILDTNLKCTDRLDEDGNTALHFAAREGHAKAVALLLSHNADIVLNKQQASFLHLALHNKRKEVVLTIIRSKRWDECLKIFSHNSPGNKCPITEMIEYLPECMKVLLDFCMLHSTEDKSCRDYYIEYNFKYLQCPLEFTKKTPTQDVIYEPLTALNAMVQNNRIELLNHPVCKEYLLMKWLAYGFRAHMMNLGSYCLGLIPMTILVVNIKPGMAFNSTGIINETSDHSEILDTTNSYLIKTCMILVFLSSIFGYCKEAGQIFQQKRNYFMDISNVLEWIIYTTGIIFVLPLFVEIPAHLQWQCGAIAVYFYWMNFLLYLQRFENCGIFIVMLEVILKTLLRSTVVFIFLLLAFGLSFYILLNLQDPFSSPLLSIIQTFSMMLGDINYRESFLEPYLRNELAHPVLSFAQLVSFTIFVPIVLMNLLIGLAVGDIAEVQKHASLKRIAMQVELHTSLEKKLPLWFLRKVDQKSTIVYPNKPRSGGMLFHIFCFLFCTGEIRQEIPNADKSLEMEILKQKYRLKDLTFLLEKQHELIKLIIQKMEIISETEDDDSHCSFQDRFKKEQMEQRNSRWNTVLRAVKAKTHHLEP

rTRPA1 = rTRPA1 (Rattus norvegicus, UniProt Q6RI86); conditions: cited from earlier work
rTRPA1, sequence (Q6RI86 whole entry): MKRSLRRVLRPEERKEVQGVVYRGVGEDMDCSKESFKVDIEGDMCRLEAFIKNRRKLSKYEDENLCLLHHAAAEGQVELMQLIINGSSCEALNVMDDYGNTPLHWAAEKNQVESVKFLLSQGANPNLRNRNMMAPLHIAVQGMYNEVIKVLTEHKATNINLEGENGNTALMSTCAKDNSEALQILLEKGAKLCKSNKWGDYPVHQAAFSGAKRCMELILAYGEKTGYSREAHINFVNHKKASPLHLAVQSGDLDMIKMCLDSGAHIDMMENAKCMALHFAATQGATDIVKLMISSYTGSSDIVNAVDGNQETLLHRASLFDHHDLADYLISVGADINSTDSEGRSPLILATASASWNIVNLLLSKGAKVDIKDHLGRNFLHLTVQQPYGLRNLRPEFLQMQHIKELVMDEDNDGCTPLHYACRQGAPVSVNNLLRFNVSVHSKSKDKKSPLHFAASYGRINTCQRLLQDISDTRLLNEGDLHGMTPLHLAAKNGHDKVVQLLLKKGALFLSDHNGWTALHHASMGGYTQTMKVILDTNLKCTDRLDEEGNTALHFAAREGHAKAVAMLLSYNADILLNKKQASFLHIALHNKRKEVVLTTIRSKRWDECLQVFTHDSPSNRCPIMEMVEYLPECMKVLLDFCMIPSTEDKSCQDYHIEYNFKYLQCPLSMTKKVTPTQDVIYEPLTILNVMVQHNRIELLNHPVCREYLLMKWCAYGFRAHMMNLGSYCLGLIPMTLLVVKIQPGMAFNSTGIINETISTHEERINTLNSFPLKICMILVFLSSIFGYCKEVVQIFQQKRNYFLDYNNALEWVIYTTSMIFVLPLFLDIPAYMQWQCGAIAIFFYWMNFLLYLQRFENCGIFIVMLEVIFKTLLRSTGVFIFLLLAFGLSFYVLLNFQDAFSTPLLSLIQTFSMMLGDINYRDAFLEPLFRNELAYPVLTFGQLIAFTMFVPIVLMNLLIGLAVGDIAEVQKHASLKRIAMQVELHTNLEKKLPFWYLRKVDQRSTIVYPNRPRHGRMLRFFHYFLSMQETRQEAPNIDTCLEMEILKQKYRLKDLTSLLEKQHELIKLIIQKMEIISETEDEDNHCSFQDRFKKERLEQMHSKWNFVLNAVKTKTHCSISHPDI

| SMILES | TRPA1 agonist-induced ear edema (ear thickness) [1] | epidermis thickness, change (mouse AD-patch model) [%] | inflammatory scores, change (mouse AD-patch model) [%] | TEWL-increase, change (mouse AD-patch model) [%] | IC50 (hTRPV3) [µM] | IL-17 production by yO T cells (IL17f mRNA) [2] | imiquimod-induced epidermis thickness increase [2] | Efficacy described in pain model (ip) (pain models; ip) | oral bioavailability described in rat [3] | IC50 (hTRPA1) [µM] | IC50 (rTRPA1) [µM] | Efficacy described in pain models in rat (pain models; rat) |
| --- | --- | --- | --- | --- | --- | --- | --- | --- | --- | --- | --- | --- |
| Cc1cc2[nH]ncc2cc1-c1ccccc1C(F)(F)F [compound B] | decreased | −32 | −27 | −54 | > 30 |  |  |  |  |  |  |  |
| FC(F)(F)c1ccccc1-c1cc2cn[nH]c2cc1OCC1CC1 [compound C] | decreased |  |  |  | > 30 | did not significantly reduce | did not significantly reduce | Efficacy | Low oral |  |  |  |
| CCC(C)c1ccc(NC(=O)Cn2cnc3c2c(=O)n(C)c(=O)n3C)cc1 (stereo not drawn) [compound D, reference compound] | decreased | −26 | −32 | −60 |  |  |  |  |  | 14 to 18 | 0.23 | Efficacy |
